Reference: patent publication US12029217B2, “Safened compositions comprising pyridine carboxylate herbicides and isoxadifen” (Corteva Agriscience LLC, priority 2018, dated 2024)

How the values were obtained:
Assay type in all cases: in vivo
[1] = test system: Polygonum convolvulus (wild buckwheat); test: Greenhouse postemergence visual injury, wild buckwheat (POLCO); settings: Example 6
Text: (§1) Seeds of the desired test plant species were planted in a 90:10% v/v (volume/volume) mixture of PRO-MIX® BX (Premier Tech Horticulture, Quakertown, PA, USA) and PROFILE® GREENS GRADE™ (Profile Products LLC, Buffalo Grove, IL, USA) planting mixture, which typically has a pH of 5.2 to 6.2 and an organic matter content of at least 50 percent, in plastic pots with a surface area of 103.2 square centimeters (cm^2). When required to ensure good germination and healthy plants, a fungicide treatment and/or other chemical or physical treatment was applied. The plants were grown for 7-36 days (d) in a greenhouse with an approximate 14-hour (h) photo-period which was maintained at about 23° C. during the day and 22° C. during the night. Nutrients and water were added on a regular basis and supplemental lighting was provided with overhead metal halide 1000-Watt lamps as necessary. The plants were employed for testing when they reached the second or third true leaf stage.
(§2) Emulsifiable concentrates of each of each pyridine carboxylate herbicide (Compound A or Compound B) were prepared at 100 grams acid equivalent per liter (g ae/L). An aliquot of each emulsifiable concentrate was placed in a 25 mL glass vial and diluted with an aqueous mixture of 1.25% (v/v) ACTIROB® B esterified rapeseed oil (Bayer Crop Science, Research Triangle Park, NC, USA) or MSO® Concentrate with LECI-TECH® methylated soybean oil (Loveland Products, Loveland, CO, USA) to obtain concentrated stock solutions at the highest application rate for each herbicide, based upon a 12 milliliter (mL) application volume at a rate of 187 liters per hectare (L/ha). The concentrated stock solutions were further diluted with an aqueous mixture of 1.25% v/v ACTIROB® B or MSO® Concentrate with LECI-TECH® to obtain stock solutions at reduced application rates for each herbicide. Spray solutions of the herbicide combinations (Compound A or Compound B plus safener) were prepared by adding weighed amounts or aliquots of the safener to the stock solutions of Compound A or Compound B to form 12-mL spray solutions in two-way combinations.
(§3) The spray solutions were applied to the plant material with an overhead Mandel track sprayer equipped with 8002E nozzles calibrated to deliver 187 L/ha over an application area of 0.503 square meters (m^2) at a spray height of 18 inches (43 centimeters (cm)) above the average plant canopy. […]
(§4) The treated plants and control plants were placed in a greenhouse as described above and watered by sub-irrigation to prevent wash-off of the test compounds. After 20-22 d, the condition of the test plants as compared with that of the control plants was determined visually and scored on a scale of 0 to 100 percent where 0 corresponds to no injury and 100 corresponds to complete kill.

[2] = test system: Setaria faberi (giant foxtail); test: Greenhouse postemergence visual injury, giant foxtail (SETFA)
Text: as §1, §2
(§5) The spray solutions were applied to the plant material with an overhead Mandel track sprayer equipped with 8002E nozzles calibrated to deliver 187 L/ha over an application area of 0.503 square meters (m^2) at a spray height of 18 inches (43 centimeters (cm)) above the average plant canopy. Control plants were sprayed in the same manner with the solvent blank. All herbicide (component a) application rates are given as “g ae/ha” and all safener (component b) application rates are given as “g ai/ha.”
as §4

[3] = test system: Eleusine indica (goosegrass); test: Greenhouse postemergence visual injury, goosegrass (ELEIN); settings: Example 7
Text: as §1, §2, §3, §4

[4] = test system: Sorghum vulgare (sorghum); test: Greenhouse postemergence visual injury, sorghum (SORVU); settings: Example 5
Text: as §1, §2, §5, §4

[5] = test system: Oryza sativa (common rice); test: Greenhouse postemergence visual injury, rice (ORYSA); settings: Example 6
Text: as §1, §2, §3, §4

[6] = test system: Leptochloa chinensis (Chinese sprangletop); test: Greenhouse postemergence visual injury, Chinese sprangletop (LEFCH); settings: Example 6
Text: as §1, §2, §3, §4

[7] = test system: Cirsium arvense (Canada thistle); test: Greenhouse postemergence visual injury, Canada thistle (CIRAR); settings: Example 6
Text: as §1, §2, §3, §4

[8] = test system: Lolium multiflorum (Italian ryegrass); test: Greenhouse postemergence visual injury, Italian ryegrass (LOLMU)
Text: as §1, §2, §5, §4

[9] = test system: Amaranthus tamariscinus (common water hemp); test: Greenhouse postemergence visual injury, common water hemp (AMATA); settings: Example 7
Text: as §1, §2, §3, §4

Kochia scoparia (kochia) = test: Greenhouse postemergence visual injury, kochia (KCHSC); settings: Example 6
Text: as §1, §2, §3, §4

[10] = test system: Cyperus esculentus (nutsedge); test: Greenhouse postemergence visual injury, nutsedge (CYPES)
Text: as §1, §2, §5, §4

[11] = test system: Chenopodium album L. (common lambsquarters); test: Greenhouse postemergence visual injury, common lambsquarters (CHEAL); settings: Example 6
Text: as §1, §2, §3, §4

[12] = test system: Saccharum officinarum (sugarcane); test: Greenhouse postemergence visual injury, sugarcane (SACOF); settings: Example 3
Text: as §1, §2, §5, §4

[13] = test system: Ambrosia artemisiifolia (common ragweed); test: Greenhouse postemergence visual injury, common ragweed (AMBEL); settings: Example 7
Text: as §1, §2, §3, §4

[14] = test system: Triticum aestivum (spring wheat); test: Greenhouse postemergence visual injury, spring wheat (TRZAS)
Text: as §1, §2, §5, §4

[15] = test system: Triticum aestivum (winter wheat); test: Greenhouse postemergence visual injury, winter wheat (TRZAW)
Text: as §1, §2, §5, §4

[16] = test system: Digitaria sanguinalis (large crabgrass); test: Greenhouse postemergence visual injury, large crabgrass (DIGSA)
Text: as §1, §2, §5, §4

[17] = test system: Matricaria chamomilla (wild chamomile); test: Greenhouse postemergence visual injury, wild chamomile (MATCH); settings: Example 1
Text: as §1, §2, §3, §4

[18] = test system: Abutilon theophrasti (velvetleaf); test: Greenhouse postemergence visual injury, velvetleaf (ABUTH); settings: Example 6
Text: as §1, §2, §3, §4

[19] = isoxadifen-ethyl 10 g/ha, Example 7
[20] = isoxadifen-ethyl 20 g/ha, Example 6
[21] = isoxadifen-ethyl 20 g/ha, Example 7
[22] = isoxadifen-ethyl 40 g/ha, Example 6
[23] = isoxadifen-ethyl 80 g/ha, Example 6
[24] = isoxadifen-ethyl 20 g/ha, Example 4
[25] = isoxadifen-ethyl 40 g/ha, Example 4
[26] = isoxadifen-ethyl 80 g/ha, Example 4
[27] = isoxadifen-ethyl 120 g/ha, Example 4
[28] = isoxadifen-ethyl 20 g/ha, Example 2
[29] = isoxadifen-ethyl 40 g/ha, Example 2
[30] = isoxadifen-ethyl 80 g/ha, Example 2
[31] = isoxadifen-ethyl 120 g/ha, Example 2

Measured: % visual injury, Ob

CCOC(=O)C1=NOC(c2ccccc2)(c2ccccc2)C1 [Isoxadifen-ethyl, isoxadifen-ethyl]
0%: [1]; isoxadifen-ethyl 20 g/ha | [1]; isoxadifen-ethyl 40 g/ha | [1]; isoxadifen-ethyl 80 g/ha | [2]; [19] | [2]; [20] | [2]; [21] | [2]; [22] | [2]; [23] | [3]; isoxadifen-ethyl 10 g/ha | [3]; isoxadifen-ethyl 20 g/ha | [4]; isoxadifen-ethyl 20 g/ha | [4]; isoxadifen-ethyl 40 g/ha | [4]; isoxadifen-ethyl 80 g/ha | [4]; isoxadifen-ethyl 120 g/ha | [5]; isoxadifen-ethyl 20 g/ha | [5]; isoxadifen-ethyl 40 g/ha | [5]; isoxadifen-ethyl 80 g/ha | [6]; isoxadifen-ethyl 20 g/ha | [6]; isoxadifen-ethyl 40 g/ha | [6]; isoxadifen-ethyl 80 g/ha | [7]; isoxadifen-ethyl 20 g/ha | [7]; isoxadifen-ethyl 40 g/ha | [7]; isoxadifen-ethyl 80 g/ha | [8]; [19] | [8]; [20] | [8]; [21] | [8]; [22] | [8]; [23] | [9]; isoxadifen-ethyl 10 g/ha | [9]; isoxadifen-ethyl 20 g/ha | Kochia scoparia (kochia); isoxadifen-ethyl 20 g/ha | Kochia scoparia (kochia); isoxadifen-ethyl 40 g/ha | Kochia scoparia (kochia); isoxadifen-ethyl 80 g/ha | [10]; [24] | [10]; isoxadifen-ethyl 20 g/ha, Example 5 | [10]; [20] | [10]; [25] | [10]; isoxadifen-ethyl 40 g/ha, Example 5 | [10]; [22] | [10]; [26] | [10]; isoxadifen-ethyl 80 g/ha, Example 5 | [10]; [23] | [10]; [27] | [10]; isoxadifen-ethyl 120 g/ha, Example 5 | [11]; isoxadifen-ethyl 20 g/ha | [11]; isoxadifen-ethyl 40 g/ha | [11]; isoxadifen-ethyl 80 g/ha | [12]; isoxadifen-ethyl 10 g/ha | [12]; isoxadifen-ethyl 20 g/ha | [12]; isoxadifen-ethyl 40 g/ha | [12]; isoxadifen-ethyl 80 g/ha | [13]; isoxadifen-ethyl 10 g/ha | [13]; isoxadifen-ethyl 20 g/ha | [14]; isoxadifen-ethyl 10 g/ha, Example 1 | [14]; isoxadifen-ethyl 20 g/ha, Example 1 | [14]; [28] | [14]; [24] | [14]; isoxadifen-ethyl 40 g/ha, Example 1 | [14]; [29] | [14]; [25] | [14]; [30] | [14]; [26] | [14]; [31] | [14]; [27] | [15]; [28] | [15]; [20] | [15]; [29] | [15]; [22] | [15]; [30] | [15]; [23] | [15]; [31] | [16]; [19] | [16]; [20] | [16]; [21] | [16]; [22] | [16]; [23] | [17]; isoxadifen-ethyl 10 g/ha | [17]; isoxadifen-ethyl 20 g/ha | [17]; isoxadifen-ethyl 40 g/ha | [18]; isoxadifen-ethyl 20 g/ha | [18]; isoxadifen-ethyl 40 g/ha | [18]; isoxadifen-ethyl 80 g/ha
